Numbers after ± are expanded uncertainties.
Tests used:
[1] = refractive index (Na D-line) (dimensionless); conditions: 101.33 kPa, Liquid, Standard Abbe refractometry
[2] = for surface tension liquid-gas: Drop volume; for electrical conductivity / viscosity / speed of sound / mass density: 101.33 kPa, Liquid; for electrical conductivity: CRISON model GLP31; for viscosity: Capillary tube (Ostwald / Ubbelohde) method; for speed of sound: Sing-around technique in a fixed-path interferometer; for mass density: Vibrating tube method
[3] = molar heat capacity at constant pressure; conditions: 101.33 kPa, Liquid, Small sample (50 mg) DSC

CCC[n+]1ccccc1.F[B-](F)(F)F [1-propylpyridinium tetrafluoroborate]
Conditions | electrical conductivity, [2] [S/m] | mass density, [2] [kg/m3] | molar heat capacity at constant pressure, [3] [J/K/mol] | refractive index, [1] | speed of sound, [2] [m/s] | surface tension liquid-gas, [2] [mN/m] | viscosity, [2] [mPa·s]
278.15 K | 0.102 ± 0.0036 | 1267.63 ± 1.4 | 352 ± 8 | – | 1691.9 ± 2.9 | 52.55 ± 0.57 | 461.4 ± 18
280.65 K | 0.123 ± 0.0041 | 1265.78 ± 1.4 | 354 ± 8 | – | 1685.4 ± 2.9 | 52.35 ± 0.57 | 379.1 ± 14
283.15 K | 0.151 ± 0.0049 | 1263.92 ± 1.4 | 355 ± 8 | 1.44855 ± 0.00051 | 1678.9 ± 2.9 | 52.16 ± 0.57 | 314.2 ± 10
285.65 K | 0.181 ± 0.0054 | 1262.06 ± 1.4 | 356 ± 8 | 1.44789 ± 0.00051 | 1672.5 ± 2.9 | 51.94 ± 0.56 | 262.5 ± 8.1
288.15 K | 0.215 ± 0.006 | 1260.19 ± 1.4 | 357 ± 8 | 1.44723 ± 0.00051 | 1666.2 ± 2.9 | 51.72 ± 0.56 | 220.8 ± 6.2
290.65 K | 0.252 ± 0.007 | 1258.42 ± 1.4 | 359 ± 8 | 1.44655 ± 0.00051 | 1660 ± 2.9 | 51.53 ± 0.56 | 186.9 ± 4.7
293.15 K | 0.302 ± 0.009 | 1256.64 ± 1.4 | 361 ± 8 | 1.44588 ± 0.00051 | 1653.9 ± 2.9 | 51.29 ± 0.56 | 160 ± 3.7
295.65 K | 0.352 ± 0.009 | 1254.86 ± 1.4 | 362 ± 8 | 1.44522 ± 0.00051 | 1647.8 ± 2.9 | 51.15 ± 0.56 | 137.7 ± 2.9
298.15 K | 0.401 ± 0.009 | 1253.08 ± 1.4 | 363 ± 8 | 1.44455 ± 0.00051 | 1641.7 ± 2.9 | 50.97 ± 0.55 | 119.5 ± 2.2
300.65 K | 0.456 ± 0.01 | 1251.3 ± 1.4 | 365 ± 8 | 1.44389 ± 0.00051 | 1635.7 ± 2.9 | 50.73 ± 0.55 | 103.8 ± 1.8
303.15 K | 0.516 ± 0.011 | 1249.52 ± 1.4 | 366 ± 8 | 1.44322 ± 0.00051 | 1629.8 ± 2.9 | 50.51 ± 0.55 | 90.75 ± 1.4
305.65 K | 0.581 ± 0.012 | 1247.73 ± 1.4 | 367 ± 8 | 1.44256 ± 0.00051 | 1623.8 ± 2.9 | 50.32 ± 0.55 | 79.75 ± 1.1
308.15 K | 0.649 ± 0.013 | 1245.95 ± 1.4 | 369 ± 8 | 1.4419 ± 0.00051 | 1618 ± 2.9 | 50.12 ± 0.54 | 70.61 ± 0.89
310.65 K | 0.722 ± 0.014 | 1244.18 ± 1.4 | 370 ± 8 | 1.44123 ± 0.00051 | 1612.1 ± 2.9 | 49.93 ± 0.54 | 62.81 ± 0.74
313.15 K | 0.799 ± 0.015 | 1242.4 ± 1.4 | 372 ± 8 | 1.44057 ± 0.00051 | 1606.3 ± 2.9 | 49.79 ± 0.54 | 56.02 ± 0.62
315.65 K | 0.881 ± 0.016 | 1240.63 ± 1.4 | 373 ± 8 | 1.4399 ± 0.00051 | 1600.5 ± 2.9 | 49.54 ± 0.54 | 50.22 ± 0.55
318.15 K | 0.965 ± 0.018 | 1238.86 ± 1.4 | 374 ± 8 | 1.43924 ± 0.00051 | 1594.8 ± 2.9 | 49.41 ± 0.54 | 45.19 ± 0.52
320.65 K | 1.07 ± 0.019 | 1237.1 ± 1.4 | 376 ± 8 | 1.43859 ± 0.00051 | 1589 ± 2.9 | 49.21 ± 0.54 | 40.86 ± 0.47
323.15 K | 1.15 ± 0.019 | 1235.33 ± 1.4 | 377 ± 8 | 1.43792 ± 0.00051 | 1583.3 ± 2.9 | 49.03 ± 0.53 | 36.99 ± 0.42
325.65 K | 1.26 ± 0.021 | 1233.58 ± 1.4 | 378 ± 8 | 1.43726 ± 0.00051 | 1577.6 ± 2.9 | 48.82 ± 0.53 | 33.84 ± 0.39
328.15 K | 1.37 ± 0.023 | 1231.82 ± 1.4 | 380 ± 8 | 1.43659 ± 0.00051 | 1572 ± 2.9 | 48.7 ± 0.53 | 30.72 ± 0.35
330.65 K | 1.48 ± 0.024 | 1230.07 ± 1.3 | 381 ± 8 | 1.43593 ± 0.00051 | 1566.3 ± 2.9 | 48.46 ± 0.53 | 28.09 ± 0.32
333.15 K | 1.6 ± 0.026 | 1228.32 ± 1.3 | 383 ± 8 | 1.43528 ± 0.00051 | 1560.7 ± 2.9 | 48.3 ± 0.53 | 25.81 ± 0.29
335.65 K | 1.73 ± 0.027 | 1226.57 ± 1.3 | 384 ± 8 | 1.43463 ± 0.00051 | 1555.1 ± 2.9 | 48.1 ± 0.52 | 23.78 ± 0.27
338.15 K | 1.87 ± 0.029 | 1224.83 ± 1.3 | 385 ± 8 | 1.43398 ± 0.00051 | 1549.5 ± 2.9 | 47.86 ± 0.52 | 21.97 ± 0.25

From the NIST ThermoML archive (doi:10.1016/j.jct.2011.08.015)
